Measurements: patent publication US20240197670A1, “TREATMENT OF HERPES ZOSTER WITH TOPICAL TETRACAINE” (PAGARI LIFE SCIENCE CORP, priority 2022, published 2024)

Legend:
Adult human skin = test: Skin appearance / toxicity in skin organ culture; assay type: cell-based; settings: for skin color change: skin treated for 48 or 72 hours, more intense in 72 hour group, only where applied
From the text: (§1) Adult human skin from a reduction mammoplasty was cleaned and cut to a thickness of 1 mm, maintaining normal skin architecture while removing underlying adipose and some of the subdermal and connective tissue. Skin was inoculated by scarification with VZV-ORF57-Luc (cell-associated virus, from a frozen stock). VZV-ORF57-Luc expresses firefly luciferase. Infected skin was placed on NetWells, which are designed to hold skin at the air-liquid interface. This orientation keeps the epidermis in contact with the air so it remains dry, while the dermis remains moist and in contact with the medium. Infected skin was scanned by IVIS Spectrum on DPI (Day Post Inoculation) 1 and 3, and prior to treatment being initiated. All treatments were started on DPI 3, but removed after different amounts of time, including after 8, 24, 48, or 72 hours. All compounds were formulated in either the test vehicle or cocoa butter (cidofovir, CDV) and applied directly to the epidermis. To remove treatment, the compound was gently wiped off the surface of the skin, and the entire skin explant was submerged and gently swirled in phosphate-buffered saline (PBS) for a few seconds to remove any residue. The topical treatment was removed prior to imaging by gently wiping it off the epidermis.
In this study, tetracaine was placed as a small drop in the center of the skin. A color change in the skin treated for 48 or 72 hours was observed, with more intense coloring in the 72 hour group. […] Each row in FIG. 5 depicts the same piece of skin over the course of the assay.

[1] = system: VZV-ORF57-Luc (Varicella Zoster Virus) in adult human skin; test: Antiviral evaluation against VZV in skin organ culture (SOC), bioluminescence VZV yield as fold change; assay type: cell-based
Method: The goal of this study was to evaluate the effect of tetracaine against VZV in a skin organ culture (SOC) model and to determine an appropriate duration of treatment in skin to prevent VZV spread. Tetracaine, either the formulation of Example 2 or the formulation of Example 7, was tested as a topical treatment (formulated in the vehicle of Example 7) against VZV infections. Control formulations (cidofovir, CDV) were formulated in cocoa butter.
as §1
FIGS. 4A-4D show VZV yield as fold change, which was calculated as the total flux (photons/sec) normalized to DPI 1 for each skin explant. Imaging started on DPI 1 and was performed every day or every other day starting on DPI 3, depending on the group. In FIGS. 4A-4D, the treatment period is highlighted by a gray box. […]

[2] = cited from earlier work

Row | SMILES | skin color change (Adult human skin) | virus spread compared to cocoa butter vehicle ([1]; formulated in cocoa butter, by end of treatment phase (FIG. 4D, 72 hours), Student's t-test p<0.01) | toxicity to the skin (Adult human skin; low bioluminescent signals in treated explants even after 3 days) | solubility in alcohol, ether, benzene and chloroform ([2]; alcohol, ether, benzene, chloroform) | solubility in water ([2]; water) | effect against VZV-infected skin as a topical treatment (study conclusion) ([1]; skin organ culture) | effect on VZV yield vs test vehicle ([1]; topical treatments of 24-72 hours started DPI 3, one-way ANOVA)
1 | Nc1ccn(C[C@@H](CO)OCP(=O)(O)O)c(=O)n1 [CDV, cidofovir] | No color change | significantly lower virus spread |  |  |  |  | 
2 | CCCCNc1ccc(C(=O)OCCN(C)C)cc1 [Tetracaine] | color change |  | not toxic to the skin | soluble | very slightly soluble | highly effective | highly effective
